From patent US12077503B2, “Substituted cyclic amides and their use as herbicides” (FMC CORPORATION, priority 2015, dated 2024)

What was measured:
Assay type in all cases: in vivo
[1] = tested on: barnyardgrass (Echinochloa crus-galli); test: Test B flooded paddy test; details: Flood, 250 g ai/ha; 0 to 100 scale where 0 is no effect and 100 is complete control; 13 to 15 d
Outline: (§1)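 Greenhouse paddy pots with 2-leaf stage plants received compound by direct addition to floodwater 3 cm deep, kept at that level. Scored visually at 13–15 d versus controls (0 no effect; 100 complete control).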

[2] = tested on: sedge, umbrella (small-flower umbrella sedge, Cyperus difformis); test: Test B flooded paddy test; details: Flood, 250 g ai/ha; 0 to 100 scale where 0 is no effect and 100 is complete control; 13 to 15 d
Outline: as §1

rice (Oryra sativa) = test: Test B flooded paddy test; details: Flood, 250 g ai/ha; 0 to 100 scale where 0 is no effect and 100 is complete control; 13 to 15 d
Outline: as §1

[3] = tested on: ducksalad (Heteranthera limosa); test: Test B flooded paddy test; details: Flood, 250 g ai/ha; 0 to 100 scale where 0 is no effect and 100 is complete control; 13 to 15 d
Outline: as §1

[4] = tested on: ragweed (common ragweed, Ambrosia elatior); test: Test A preemergence; details: for Plant response rating, Ragweed: 125 g ai/ha; for Ragweed plant response rating (0 to 100 scale, 0 is no effect, 100 is complete control): 500 g ai/ha, visual injury approx. 10 d
Outline: (§2)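 Seeded soil received test chemicals as a preemergence directed spray, and seedlings at one to two leaves, 2–10 cm tall, received them postemergence, in a non-phytotoxic, surfactant-containing solvent mixture. Pots were held in a greenhouse for approximately 10 d, then rated for injury from 0, no effect, to 100, complete control.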

[5] = tested on: giant foxtail (Setaria faberii); test: Test A preemergence; details: for Plant response rating, Foxtail, Giant: 125 g ai/ha, preemergence, 0 to 100 scale (0 no effect, 100 complete control); for Foxtail, Giant plant response rating (0 to 100 scale, 0 is no effect, 100 is complete control): Preemergence, 500 g ai/ha, visual injury approx. 10 d
Outline: as §2

[6] = tested on: barnyardgrass (Echinochloa crus-galli); test: Test A preemergence; details: for Plant response rating, Barnyardgrass: 125 g ai/ha, preemergence, 0 to 100 scale (0 no effect, 100 complete control); for Barnyardgrass plant response rating (0 to 100 scale, 0 is no effect, 100 is complete control): Preemergence, 500 g ai/ha, visual injury approx. 10 d
Outline: as §2

[7] = tested on: ryegrass, Italian (Italian ryegrass, Lolium multiflorum); test: Test A preemergence; details: for Plant response rating, Ryegrass, Italian: 125 g ai/ha; for Ryegrass, Italian plant response rating (0 to 100 scale, 0 is no effect, 100 is complete control): 500 g ai/ha, visual injury approx. 10 d
Outline: as §2

Kochia (Kochia scoparia) [8] = test: Test A preemergence; details: for Plant response rating, Kochia: 125 g ai/ha, preemergence, 0 to 100 scale (0 no effect, 100 complete control); for Kochia plant response rating (0 to 100 scale, 0 is no effect, 100 is complete control): Preemergence, 500 g ai/ha, visual injury approx. 10 d
Outline: as §2

[9] = tested on: pigweed (Amaranthus retroflexus); test: Test A preemergence; details: for Plant response rating, Pigweed: 125 g ai/ha; for Pigweed plant response rating (0 to 100 scale, 0 is no effect, 100 is complete control): 500 g ai/ha, visual injury approx. 10 d
corn (Zea mays) = test: Test A postemergence; details: postemergence; for Corn plant response rating: 125 g ai/ha, visual injury rating on 0 to 100 scale (0 no effect, 100 complete control), approx. 10 d; for Plant response rating, Corn: 500 g ai/ha, 0 to 100 scale, 0 no effect, 100 complete control
Outline: as §2

[10] = tested on: ragweed (common ragweed, Ambrosia elatior); test: Test A postemergence; details: for Ragweed plant response rating: 125 g ai/ha, visual injury rating on 0 to 100 scale (0 no effect, 100 complete control), approx. 10 d; for Plant response rating, Ragweed: 500 g ai/ha
Outline: as §2

[11] = tested on: giant foxtail (Setaria faberii); test: Test A postemergence; details: for Foxtail, Giant plant response rating: 125 g ai/ha, visual injury rating on 0 to 100 scale (0 no effect, 100 complete control), approx. 10 d; for Plant response rating, Foxtail, Giant: 500 g ai/ha
Outline: as §2

[12] = tested on: barnyardgrass (Echinochloa crus-galli); test: Test A postemergence; details: postemergence; for Barnyardgrass plant response rating: 125 g ai/ha, visual injury rating on 0 to 100 scale (0 no effect, 100 complete control), approx. 10 d; for Plant response rating, Barnyardgrass: 500 g ai/ha, 0 to 100 scale, 0 no effect, 100 complete control
Outline: as §2

[13] = tested on: blackgrass (Alopecurus myosuroides); test: Test A postemergence; details: postemergence; for Blackgrass plant response rating: 125 g ai/ha, visual injury rating on 0 to 100 scale (0 no effect, 100 complete control), approx. 10 d; for Plant response rating, Blackgrass: 500 g ai/ha, 0 to 100 scale, 0 no effect, 100 complete control
Outline: as §2

[14] = tested on: ryegrass, Italian (Italian ryegrass, Lolium multiflorum); test: Test A postemergence; details: for Ryegrass, Italian plant response rating: 125 g ai/ha, visual injury rating on 0 to 100 scale (0 no effect, 100 complete control), approx. 10 d; for Plant response rating, Ryegrass, Italian: 500 g ai/ha
Outline: as §2

[15] = tested on: Galium (catchweed bedstraw, Galium aparine); test: Test A postemergence; details: for Galium plant response rating: 125 g ai/ha, visual injury rating on 0 to 100 scale (0 no effect, 100 complete control), approx. 10 d; for Plant response rating, Galium: 500 g ai/ha
Outline: as §2

[16] = tested on: wheat (Triticum aestivum); test: Test A postemergence; details: for Wheat plant response rating: 125 g ai/ha, visual injury rating on 0 to 100 scale (0 no effect, 100 complete control), approx. 10 d; for Plant response rating, Wheat: 500 g ai/ha
Outline: as §2

Kochia (Kochia scoparia) [17] = test: Test A postemergence; details: for Kochia plant response rating: 125 g ai/ha, visual injury rating on 0 to 100 scale (0 no effect, 100 complete control), approx. 10 d; for Plant response rating, Kochia: 500 g ai/ha
Outline: as §2

[18] = tested on: pigweed (Amaranthus retroflexus); test: Test A postemergence; details: for Pigweed plant response rating: 125 g ai/ha, visual injury rating on 0 to 100 scale (0 no effect, 100 complete control), approx. 10 d; for Plant response rating, Pigweed: 500 g ai/ha
Outline: as §2

[19] = preemergence, 0 to 100 scale (0 no effect, 100 complete control)
[20] = postemergence, 0 to 100 scale, 0 no effect, 100 complete control
[21] = Preemergence, visual injury after approximately 10 d, 0 to 100 scale where 0 is no effect and 100 is complete control
[22] = Postemergence, 0 to 100 scale where 0 is no effect and 100 is complete control

Compound	Plant response rating, Barnyardgrass [1]	Plant response rating, Sedge, Umbrella [2]	Plant response rating, Rice (rice (Oryra sativa))	Plant response rating, Ducksalad [3]	Ragweed plant response rating (0 to 100 scale, 0 is no effect, 100 is complete control) ([4]; Preemergence)	Plant response rating, Foxtail, Giant [5]	Foxtail, Giant plant response rating (0 to 100 scale, 0 is no effect, 100 is complete control) [5]	Plant response rating, Barnyardgrass [6]	Barnyardgrass plant response rating (0 to 100 scale, 0 is no effect, 100 is complete control) [6]	Ryegrass, Italian plant response rating (0 to 100 scale, 0 is no effect, 100 is complete control) ([7]; Preemergence)	Plant response rating, Kochia (Kochia (Kochia scoparia) [8])	Kochia plant response rating (0 to 100 scale, 0 is no effect, 100 is complete control) (Kochia (Kochia scoparia) [8])	Pigweed plant response rating (0 to 100 scale, 0 is no effect, 100 is complete control) ([9]; Preemergence)	Corn plant response rating (corn (Zea mays))	Plant response rating, Corn (corn (Zea mays))	Ragweed plant response rating ([10]; postemergence)	Foxtail, Giant plant response rating ([11]; postemergence)	Barnyardgrass plant response rating [12]	Plant response rating, Barnyardgrass [12]	Blackgrass plant response rating [13]	other results
O=C(Nc1cccc(F)c1F)C1C(=O)N(c2ccccc2)CC1c1cccc(C(F)(F)F)c1 (stereo not drawn) [Compound 457]	0	0	0	0	0	0	0	0	0	0	0	0	0	0	0	0	0	0	0	0	Plant response rating, Ragweed [4, 19]: 0; Plant response rating, Ryegrass, Italian [7, 19]: 0; Plant response rating, Pigweed [9, 19]: 0; Plant response rating, Ragweed [10, 20]: 0; Plant response rating, Foxtail, Giant [11, 20]: 0; Plant response rating, Blackgrass [13]: 0; Ryegrass, Italian plant response rating ([14]; postemergence): 0; Plant response rating, Ryegrass, Italian [14, 20]: 0; Galium plant response rating ([15]; postemergence): 0; Plant response rating, Galium [15, 20]: 0; Wheat plant response rating ([16]; postemergence): 0; Plant response rating, Wheat [16, 20]: 0; Kochia plant response rating (Kochia (Kochia scoparia) [17]; postemergence): 0; Plant response rating, Kochia (Kochia (Kochia scoparia) [17]; [20]): 0; Pigweed plant response rating ([18]; postemergence): 0; Plant response rating, Pigweed [18, 20]: 0
Cc1c(F)ccc(NC(=O)C2C(=O)NCC2c2cccc(OC(F)(F)C(F)F)c2)c1F (stereo not drawn) [Compound 460]	40	0	0	100	20	90	90	80	80	60	0	40	30	20	40	0	90	60	70	20	Plant response rating, Ragweed [4, 19]: 0; Plant response rating, Ryegrass, Italian [7, 19]: 40; Plant response rating, Pigweed [9, 19]: 30; Plant response rating, Ragweed [10, 20]: 0; Plant response rating, Foxtail, Giant [11, 20]: 80; Plant response rating, Blackgrass [13]: 40; Ryegrass, Italian plant response rating ([14]; postemergence): 30; Plant response rating, Ryegrass, Italian [14, 20]: 30; Galium plant response rating ([15]; postemergence): 50; Plant response rating, Galium [15, 20]: 60; Wheat plant response rating ([16]; postemergence): 0; Plant response rating, Wheat [16, 20]: 20; Kochia plant response rating (Kochia (Kochia scoparia) [17]; postemergence): 0; Plant response rating, Kochia (Kochia (Kochia scoparia) [17]; [20]): 30; Pigweed plant response rating ([18]; postemergence): 20; Plant response rating, Pigweed [18, 20]: 40
CN1CC(c2ccccc2)C(C(=S)Nc2ccccc2F)C1=O (stereo not drawn) [Compound 471]	0	0	0	70	0	90	90	70	90	0	0	0	0	0	0	0	50	50	70	0	Plant response rating, Ragweed [4, 21]: 0; Plant response rating, Ryegrass, Italian [7, 21]: 0; Plant response rating, Pigweed [9, 21]: 0; Plant response rating, Ragweed [10, 22]: 0; Plant response rating, Foxtail, Giant [11, 22]: 70; Plant response rating, Blackgrass [13]: 0; Ryegrass, Italian plant response rating ([14]; postemergence): 0; Plant response rating, Ryegrass, Italian [14, 22]: 0; Galium plant response rating ([15]; postemergence): 0; Plant response rating, Galium [15, 22]: 0; Wheat plant response rating ([16]; postemergence): 0; Plant response rating, Wheat [16, 22]: 0; Kochia plant response rating (Kochia (Kochia scoparia) [17]; postemergence): 0; Plant response rating, Kochia (Kochia (Kochia scoparia) [17]; [22]): 0; Pigweed plant response rating ([18]; postemergence): 0; Plant response rating, Pigweed [18, 22]: 0
CN1CC(c2ccc(C(F)(F)F)cc2F)C(C(=O)Nc2ccccc2S(C)(=O)=O)C1=O (stereo not drawn) [Compound 473]	40	0	20	75	70	90	100	80	100	90	80	80	90	0	40	50	70	90	90	40	Plant response rating, Ragweed [4, 21]: 20; Plant response rating, Ryegrass, Italian [7, 21]: 0; Plant response rating, Pigweed [9, 21]: 80; Plant response rating, Ragweed [10, 22]: 50; Plant response rating, Foxtail, Giant [11, 22]: 90; Plant response rating, Blackgrass [13]: 60; Ryegrass, Italian plant response rating ([14]; postemergence): 0; Plant response rating, Ryegrass, Italian [14, 22]: 40; Galium plant response rating ([15]; postemergence): 60; Plant response rating, Galium [15, 22]: 60; Wheat plant response rating ([16]; postemergence): 0; Plant response rating, Wheat [16, 22]: 40; Kochia plant response rating (Kochia (Kochia scoparia) [17]; postemergence): 40; Plant response rating, Kochia (Kochia (Kochia scoparia) [17]; [22]): 80; Pigweed plant response rating ([18]; postemergence): 50; Plant response rating, Pigweed [18, 22]: 90
CC(C)=CCN1CC(c2cccc(C(F)(F)F)c2)C(C(=O)Nc2cccc(F)c2F)C1=O (stereo not drawn) [Compound 477]	0	0	0	0	0	90	90	20	90	0	0	0	0	0	40	0	40	40	70	0	Plant response rating, Ragweed [4, 21]: 0; Plant response rating, Ryegrass, Italian [7, 21]: 0; Plant response rating, Pigweed [9, 21]: 0; Plant response rating, Ragweed [10, 22]: 0; Plant response rating, Foxtail, Giant [11, 22]: 70; Plant response rating, Blackgrass [13]: 30; Ryegrass, Italian plant response rating ([14]; postemergence): 0; Plant response rating, Ryegrass, Italian [14, 22]: 0; Galium plant response rating ([15]; postemergence): 0; Plant response rating, Galium [15, 22]: 0; Wheat plant response rating ([16]; postemergence): 0; Plant response rating, Wheat [16, 22]: 40; Kochia plant response rating (Kochia (Kochia scoparia) [17]; postemergence): 0; Plant response rating, Kochia (Kochia (Kochia scoparia) [17]; [22]): 0; Pigweed plant response rating ([18]; postemergence): 0; Plant response rating, Pigweed [18, 22]: 0
